# Experimental data taken from patent publication US20230107941A1, “HEPATITIS B CAPSID ASSEMBLY MODULATORS” (Venatorx Pharmaceuticals, Inc., priority 2019, published 2023).
# How the values were obtained:
# [1] = In vitro cytotoxicity assay (MTT cell viability) in HepG2 cells; format: cell-based, human; details: human
# Summary of the method: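 CC50 was derived by 4-parameter fit of viability relative to vehicle controls, measured as MTT formazan absorbance at 492 nm after 3–4 h of reagent and DMSO solubilization. Before that, HepG2 cells seeded overnight at 20,000/well were incubated 7 days at 37°C with compound from 30 μM down to 1.0 nM in half-log steps.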
# HBV = assay: In vitro antiviral assay: anti-HBV replication in HepAD38 cells (extracellular HBV DNA by QPCR); format: cell-based, hepatitis B virus (genotype D, serotype ayw); details: Hepatitis B virus, HePAD38, 168 h, 7 days incubation, extracellular HBV DNA by QPCR, read-out: Anti-HBV EC50
# Summary of the method: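 HepG2-derived HepAD38 cells (HBV genotype D, ayw, tet-repressible CMV) induced by tetracycline withdrawal, treated 7 days at 37 °C with compound (1 μM to 10 pM, 10-fold steps). Supernatant HBV DNA quantified by QPCR against standard curve, percent of DMSO control; EC50 by 4-parameter fit; entecavir positive control.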
Structure (SMILES),CC50 at 7 days [1] [µM],EC50 (HBV) [µM]
"Cc1cc(NC(=O)c2c(C)c(C(=O)C(=O)NC3(CO)CCN(C(=O)c4ccnn4C)CC3)n(C)c2C)ccc1F [Example 76, N-(4-fluoro-3-methylphenyl)-5-(2-((4-(hydroxymethyl)-1-(1-methyl-1H-pyrazole-5-carbonyl)piperidin-4-yl)amino)-2-oxoacetyl)-1,2,4-trimethyl-1H-pyrrole-3-carboxamide]",> 30,< 0.05
"CCc1c(C(=O)Nc2ccc(F)c(C)c2)c(C)n(C)c1C(=O)C(=O)N[C@]1(C)CC[C@H](O)CC1 [Example 7, 4-ethyl-N-(4-fluoro-3-methylphenyl)-5-(2-(((1s,4s)-4-hydroxy-1-methylcyclohexyl)amino)-2-oxoacetyl)-1,2-dimethyl-1H-pyrrole-3-carboxamide]",> 30,< 0.05
"Cc1cc(NC(=O)c2c(C)c(C(=O)C(=O)N[C@H]3CC[C@@H](O)CC3)n(C)c2-c2ccncc2)ccc1F [Example 163, N-(4-fluoro-3-methylphenyl)-5-(2-(((1s,4s)-4-hydroxycyclohexyl)amino)-2-oxoacetyl)-1,4-dimethyl-2-(pyridin-4-yl)-1H-pyrrole-3-carboxamide]",> 30,> 1
"Cc1c(C(=O)Nc2ccc(F)c(Br)c2)c(C)n(C)c1C(=O)C(=O)N[C@H]1CC[C@@H](O)CC1 [Example 19, N-(3-bromo-4-fluorophenyl)-5-(2-(((1s,4s)-4-hydroxycyclohexyl)amino)-2-oxoacetyl)-1,2,4-trimethyl-1H-pyrrole-3-carboxamide]",> 30,< 0.05
"Cc1cc(NC(=O)c2c(C)c(C(=O)C(=O)NCC(C)(C)O)n(C)c2-c2cccnc2)ccc1F [Example 154, N-(4-fluoro-3-methylphenyl)-5-(2-((2-hydroxy-2-methylpropyl)amino)-2-oxoacetyl)-1,4-dimethyl-2-(pyridin-3-yl)-1H-pyrrole-3-carboxamide]",> 30,0.05 to 0.499
"CCC1(NC(=O)C(=O)c2c(C)c(C(=O)Nc3ccc(F)c(C)c3)c(C)n2C)CCN(C(C)=O)CC1 [Example 41, 5-(2-((1-acetyl-4-ethylpiperidin-4-yl)amino)-2-oxoacetyl)-N-(4-fluoro-3-methylphenyl)-1,2,4-trimethyl-1H-pyrrole-3-carboxamide]",> 30,< 0.05
"Cc1cc(NC(=O)c2c(C)c(C(=O)C(=O)N[C@H]3CC[C@H](S(C)(=O)=O)CC3)n(C)c2C)ccc1F [Example 8, N-(4-fluoro-3-methylphenyl)-1,2,4-trimethyl-5-(2-(((1r,4r)-4-(methylsulfonyl)cyclohexyl)amino)-2-oxoacetyl)-1H-pyrrole-3-carboxamide]",5 to 30,< 0.05
"CCc1c(C(=O)Nc2ccc(F)c(C)c2)c(C)c(C(=O)C(=O)N[C@]2(C)CC[C@H](O)CC2)n1C [Example 107, 2-ethyl-N-(4-fluoro-3-methylphenyl)-5-(2-(((1s,4s)-4-hydroxy-1-methylcyclohexyl)amino)-2-oxoacetyl)-1,4-dimethyl-1H-pyrrole-3-carboxamide]",> 30,< 0.05
"Cc1cc(NC(=O)c2c(C)c(C(=O)C(=O)N[C@H]3CC[C@@H](S(C)(=O)=O)CC3)n(C)c2C)ccc1F [Example 1, N-(4-fluoro-3-methylphenyl)-1,2,4-trimethyl-5-(2-(((1s,4s)-4-(methylsulfonyl)cyclohexyl)amino)-2-oxoacetyl)-1H-pyrrole-3-carboxamide]",> 30,< 0.05
"Cc1cc(NC(=O)c2c(C)c(C(=O)C(=O)N[C@]3(C)CC[C@H](O)CC3)n(C)c2-c2ccncc2)ccc1F [Example 162, N-(4-fluoro-3-methylphenyl)-5-(2-(((1s,4s)-4-hydroxy-1-methylcyclohexyl)amino)-2-oxoacetyl)-1,4-dimethyl-2-(pyridin-4-yl)-1H-pyrrole-3-carboxamide]",> 30,> 1
"Cc1cc(NC(=O)c2c(C)c(C(=O)C(=O)NC34CC(C3)C4)n(C)c2C)ccc1F [Example 80, 5-(2-(bicyclo[1.1.1]pentan-1-ylamino)-2-oxoacetyl)-N-(4-fluoro-3-methylphenyl)-1,2,4-trimethyl-1H-pyrrole-3-carboxamide]",5 to 30,< 0.05
"CCC1(NC(=O)C(=O)c2c(C)c(C(=O)Nc3ccc(F)c(C)c3)c(C)n2C)CCN(c2cccnn2)CC1 [Example 44, 5-(2-((4-ethyl-1-(pyridazin-3-yl)piperidin-4-yl)amino)-2-oxoacetyl)-N-(4-fluoro-3-methylphenyl)-1,2,4-trimethyl-1H-pyrrole-3-carboxamide]",> 30,< 0.05
"Cc1cc(NC(=O)c2c(C)c(C(=O)C(=O)N[C@]3(C)CC[C@@H](O)CC3)n(C)c2C)cc(C)c1F [Example 168, N-(4-fluoro-3,5-dimethylphenyl)-5-(2-(((1r,4r)-4-hydroxy-1-methylcyclohexyl)amino)-2-oxoacetyl)-1,2,4-trimethyl-1H-pyrrole-3-carboxamide]",> 30,< 0.05
"Cc1cc(NC(=O)c2c(C3CC3)c(C(=O)C(=O)NCC(C)(C)O)n(C)c2C)ccc1F [Example 99, 4-cyclopropyl-N-(4-fluoro-3-methylphenyl)-5-(2-((2-hydroxy-2-methylpropyl)amino)-2-oxoacetyl)-1,2-dimethyl-1H-pyrrole-3-carboxamide]",> 30,> 1
"CCc1c(C(=O)Nc2ccc(F)c(C)c2)c(C)n(C)c1C(=O)C(=O)N[C@H](C)C(F)(F)F [Example 90, (R)-4-ethyl-N-(4-fluoro-3-methylphenyl)-1,2-dimethyl-5-(2-oxo-2-((1,1,1-trifluoropropan-2-yl)amino)acetyl)-1H-pyrrole-3-carboxamide]",5 to 30,< 0.05
"Cc1c(C(=O)Nc2ccc(F)c(C3CC3)c2)c(C)n(C)c1C(=O)C(=O)NC(C)(C)C [Example 138, 5-(2-(tert-butylamino)-2-oxoacetyl)-N-(3-cyclopropyl-4-fluorophenyl)-1,2,4-trimethyl-1H-pyrrole-3-carboxamide]",> 30,< 0.05
"Cc1c(C(=O)Nc2cccc(Cl)n2)c(C)n(C)c1C(=O)C(=O)N[C@H](C)C(F)(F)F [Example 77, (R)-N-(6-chloropyridin-2-yl)-1,2,4-trimethyl-5-(2-oxo-2-((1,1,1-trifluoropropan-2-yl)amino)acetyl)-1H-pyrrole-3-carboxamide]",> 30,0.05 to 0.499
"Cc1c(C(=O)Nc2ccc(F)c(S(C)(=O)=O)c2)c(C)n(C)c1C(=O)C(=O)NC(C)(C)C [Example 69, 5-(2-(tert-butylamino)-2-oxoacetyl)-N-(4-fluoro-3-(methylsulfonyl)phenyl)-1,2,4-trimethyl-1H-pyrrole-3-carboxamide]",> 30,> 1
"CCc1c(C(=O)Nc2ccc(F)c(C)c2)c(C)c(C(=O)C(=O)N[C@H]2CC[C@@H](O)CC2)n1C [Example 108, 2-ethyl-N-(4-fluoro-3-methylphenyl)-5-(2-(((1s,4s)-4-hydroxycyclohexyl)amino)-2-oxoacetyl)-1,4-dimethyl-1H-pyrrole-3-carboxamide]",5 to 30,< 0.05
"Cc1cc(NC(=O)c2c(C)c(C(=O)C(=O)NC3(CC(=O)O)CCCNC3)n(C)c2C)ccc1F (centres unmarked) [Example 146, 2-(3-(2-(4-((4-fluoro-3-methylphenyl)carbamoyl)-1,3,5-trimethyl-1H-pyrrol-2-yl)-2-oxoacetamido)piperidin-3-yl)acetic acid]",> 30,> 1
"Cc1cc(NC(=O)c2c(C)c(C(=O)C(=O)N[C@H]3CC[C@@H](S(C)(=O)=O)CC3)n(C)c2-c2ccncc2)ccc1F [Example 160, N-(4-fluoro-3-methylphenyl)-1,4-dimethyl-5-(2-(((1s,4s)-4-(methylsulfonyl)cyclohexyl)amino)-2-oxoacetyl)-2-(pyridin-4-yl)-1H-pyrrole-3-carboxamide]",> 30,> 1
"Cc1cc(NC(=O)c2c(C)c(C(=O)C(=O)N[C@]3(C)C[C@H](O)C3)n(C)c2-c2cccnc2)ccc1F [Example 150, N-(4-fluoro-3-methylphenyl)-5-(2-(((1s,3s)-3-hydroxy-1-methylcyclobutyl)amino)-2-oxoacetyl)-1,4-dimethyl-2-(pyridin-3-yl)-1H-pyrrole-3-carboxamide]",> 30,> 1
"Cc1cc(Cl)cc(NC(=O)c2c(C)c(C(=O)C(=O)N[C@]3(C)CC[C@@H](O)CC3)n(C)c2C)c1 [Example 169, N-(3-chloro-5-methylphenyl)-5-(2-(((1r,4r)-4-hydroxy-1-methylcyclohexyl)amino)-2-oxoacetyl)-1,2,4-trimethyl-1H-pyrrole-3-carboxamide]",5 to 30,< 0.05
"Cc1cc(NC(=O)c2c(C)c(C(=O)C(=O)N[C@H]3CC[C@@H](S(C)(=O)=O)CC3)n(C)c2C(C)C)ccc1F [Example 110, N-(4-fluoro-3-methylphenyl)-2-isopropyl-1,4-dimethyl-5-(2-(((1s,4s)-4-(methylsulfonyl)cyclohexyl)amino)-2-oxoacetyl)-1H-pyrrole-3-carboxamide]",> 30,0.5 to 1
"Cc1cc(NC(=O)c2c(C)c(C(=O)C(=O)NC3C[C@@H]4CC(O)[C@H]3C4)n(C)c2C)ccc1F (stereo partly drawn) [Example 24, N-(4-fluoro-3-methylphenyl)-5-(2-(((1S,4R)-6-hydroxybicyclo[2.2.1]heptan-2-yl)amino)-2-oxoacetyl)-1,2,4-trimethyl-1H-pyrrole-3-carboxamide]",> 30,< 0.05
